# Measured values from patent US20260055113A1, “HETEROARYL COMPOUNDS FOR THE TREATMENT OF CANCER” (Hoffmann-La Roche Inc., priority 2022, published 2026).
# Columns and labels:
# [1] = Human microsomal stability assay; type: in vitro ADME; settings: human liver microsomes 0.5 mg/mL, 1 μM test compound, 37° C., pH 7.4
# Experimental: Human liver microsomes (Cat. NO.: 452117, Corning, USA) were preincubated with test compound for 10 minutes at 37° C. in 100 mM potassium phosphate buffer, pH 7.4. The reactions were initiated by adding NADPH regenerating system. The final incubation mixtures contained 1 μM test compound, 0.5 mg/mL liver microsomal protein, 1 mM MgCl2, 1 mM NADP, 1 unit/mL isocitric dehydrogenase and 6 mM isocitric acid in 100 mM potassium phosphate buffer, pH 7.4. After incubation times of 0, 3, 6, 9, 15 and 30 minutes at 37° C., 300 μL of cold ACN (including internal standard) was added to 100 μL incubation mixture to terminate the reaction. Following precipitation and centrifugation, 100 μL supernatant will be taken out and added 300 μL water. The amount of compound remaining in the samples was determined by LC-MS/MS. Controls of no NADPH regenerating system at zero and 30 minutes were also prepared and analyzed. The results were categorized as: low (<7.0 mL/min/kg), medium (7.0-16.2 mL/min/kg) and high (16.2-23.2 mL/min/kg).
# CD73 = CD73 (Homo sapiens (Human), UniProt P21589); assay: CD73 cellular assay (MDA-MB-231 cells, malachite readout); type: cell-based; settings: AMP substrate, 45 min, read-out: Cellular IC50 against CD73
# Experimental: After incubating with compounds for 30 minutes, 40 μL of AMP working solution (200 μM AMP in assay buffer) was added into each well in the assay plate. The assay plate was then incubated in a 5% CO2 incubator (Thermo Fisher Scientific) at 37° C. for 45 min. After the reaction was completed, 50 μL of the supernatants was collected and transferred into a new 384 well plate. 10 μL of Malachite A was added to each well in the assay plate and incubated for 10 minutes. 10 μL of Malachite B was then added to each corresponding well of the plate and incubated for 30 minutes.
# CD73, sequence (P21589 27-574): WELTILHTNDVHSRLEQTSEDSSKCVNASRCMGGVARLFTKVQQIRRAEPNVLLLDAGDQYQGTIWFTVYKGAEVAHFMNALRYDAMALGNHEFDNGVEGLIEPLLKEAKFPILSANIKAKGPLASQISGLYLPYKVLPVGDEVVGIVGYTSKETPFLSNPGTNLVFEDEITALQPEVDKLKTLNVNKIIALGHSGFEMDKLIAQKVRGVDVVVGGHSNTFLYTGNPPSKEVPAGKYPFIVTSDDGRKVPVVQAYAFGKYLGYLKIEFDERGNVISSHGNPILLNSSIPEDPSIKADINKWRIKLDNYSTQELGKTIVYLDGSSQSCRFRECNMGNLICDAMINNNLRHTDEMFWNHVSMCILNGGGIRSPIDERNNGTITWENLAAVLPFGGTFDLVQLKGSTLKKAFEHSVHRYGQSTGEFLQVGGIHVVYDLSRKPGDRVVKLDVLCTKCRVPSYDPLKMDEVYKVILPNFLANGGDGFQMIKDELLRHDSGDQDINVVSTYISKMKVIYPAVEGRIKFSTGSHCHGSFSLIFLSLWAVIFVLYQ
SMILES,CL (h) [1],IC50 (CD73)
"Cn1nc(O[C@@H](c2ccccc2)C(F)(F)F)c2cc(-c3c[nH]c(=O)[nH]c3=O)nnc21 [Example 30B, 5-[1-methyl-3-[(1S)-2,2,2-trifluoro-1-phenyl-ethoxy]pyrazolo[3,4-c]pyridazin-5-yl]-1H-pyrimidine-2,4-dione]",8.44 mL/min/kg,–
"C[C@H](Nc1nn(C)c2nnc(-c3c[nH]c(=O)[nH]c3=O)cc12)c1ccccc1 [Example 37, 5-[1-methyl-3-[[(1S)-1-phenylethyl]amino]pyrazolo[3,4-c]pyridazin-5-yl]-1H-pyrimidine-2,4-dione]",6.15 mL/min/kg,4 nM
"C[C@H](Oc1nn(C)c2nnc(-c3c[nH]c(=O)[nH]c3=O)cc12)c1cccc(Cl)n1 [Example 44, 5-[3-[(1S)-1-(6-chloro-2-pyridyl)ethoxy]-1-methyl-pyrazolo[3,4-c]pyridazin-5-yl]-1H-pyrimidine-2,4-dione]",6.15 mL/min/kg,2.3 nM
"Cc1ccnc([C@H](C)Oc2nn(C)c3nnc(-c4c[nH]c(=O)[nH]c4=O)cc23)c1 [Example 42, 5-[1-methyl-3-[(1S)-1-(4-methyl-2-pyridyl)ethoxy]pyrazolo[3,4-c]pyridazin-5-yl]-1H-pyrimidine-2,4-dione]",7.78 mL/min/kg,4.1 nM
"CC(Oc1nn(C)c2nnc(-c3c[nH]c(=O)[nH]c3=O)cc12)c1nc2ccccc2o1 (centres unmarked) [Example 25, 5-[3-[1-(1,3-benzoxazol-2-yl)ethoxy]-1-methyl-pyrazolo[3,4-c]pyridazin-5-yl]-1H-pyrimidine-2,4-dione]",8.85 mL/min/kg,8 nM
"Cn1nc(O[C@H](c2ccccc2)C(F)F)c2cc(-c3c[nH]c(=O)[nH]c3=O)nnc21 [Example 28, 5-[3-[(1R)-2,2-difluoro-1-phenyl-ethoxy]-1-methyl-pyrazolo[3,4-c]pyridazin-5-yl]-1H-pyrimidine-2,4-dione]",6.15 mL/min/kg,–
"CC(Oc1nn(C)c2nnc(-c3c[nH]c(=O)[nH]c3=O)cc12)c1ccccc1Cl (centres unmarked) [Example 13, 5-[3-[1-(2-chlorophenyl)ethoxy]-1-methyl-pyrazolo[3,4-c]pyridazin-5-yl]-1H-pyrimidine-2,4-dione]",7.84 mL/min/kg,5.5 nM
"Cc1nc([C@H](C)Oc2nn(C)c3nnc(-c4c[nH]c(=O)[nH]c4=O)cc23)ccc1F [Example 40, 5-[3-[(1S)-1-(5-fluoro-6-methyl-2-pyridyl)ethoxy]-1-methyl-pyrazolo[3,4-c]pyridazin-5-yl]-1H-pyrimidine-2,4-dione]",6.15 mL/min/kg,–
"CC(Oc1nn(C)c2nnc(-c3c[nH]c(=O)[nH]c3=O)cc12)c1ccc(Cl)cc1 (centres unmarked) [Example 15, 5-[3-[1-(4-chlorophenyl)ethoxy]-1-methyl-pyrazolo[3,4-c]pyridazin-5-yl]-1H-pyrimidine-2,4-dione]",6.15 mL/min/kg,4.1 nM
"CC(c1ccccc1)c1nn(C)c2nnc(-c3c[nH]c(=O)[nH]c3=O)cc12 (centres unmarked) [Example 5, 5-[1-methyl-3-(1-phenylethyl)pyrazolo[3,4-c]pyridazin-5-yl]-1H-pyrimidine-2,4-dione]",6.15 mL/min/kg,–
"Cc1nn(C)c2nnc(-c3c[nH]c(=O)[nH]c3=O)cc12 [Example 1, 5-(1,3-dimethylpyrazolo[3,4-c]pyridazin-5-yl)-1H-pyrimidine-2,4-dione]",8.14 mL/min/kg,56.9 nM
"Cn1nc(Cl)c2nnc(-c3c[nH]c(=O)[nH]c3=O)cc21 [Example 9, 5-(3-chloro-1-methyl-pyrazolo[4,3-c]pyridazin-6-yl)-1H-pyrimidine-2,4-dione]",6.15 mL/min/kg,46.7 nM
"Cn1nc(O[C@H](c2ccc(F)cn2)C(F)F)c2cc(-c3c[nH]c(=O)[nH]c3=O)nnc21 [Example 32A, 5-[3-[(1R)-2,2-difluoro-1-(5-fluoro-2-pyridyl)ethoxy]-1-methyl-pyrazolo[3,4-c]pyridazin-5-yl]-1H-pyrimidine-2,4-dione]",6.15 mL/min/kg,–
"CC(Oc1nn(C)c2nnc(-c3c[nH]c(=O)[nH]c3=O)cc12)c1ccnn1C (centres unmarked) [Example 24, 5-[1-methyl-3-[1-(2-methylpyrazol-3-yl)ethoxy]pyrazolo[3,4-c]pyridazin-5-yl]-1H-pyrimidine-2,4-dione]",6.26 mL/min/kg,19.6 nM
"CC(Oc1nn(C)c2nnc(-c3c[nH]c(=O)[nH]c3=O)cc12)c1ccncc1 (centres unmarked) [Example 19, 5-[1-methyl-3-[1-(4-pyridyl)ethoxy]pyrazolo[3,4-c]pyridazin-5-yl]-1H-pyrimidine-2,4-dione]",9.03 mL/min/kg,3.9 nM
"CC(Oc1nn(C)c2nnc(-c3c[nH]c(=O)[nH]c3=O)cc12)c1cccnc1 (centres unmarked) [Example 18, 5-[1-methyl-3-[1-(3-pyridyl)ethoxy]pyrazolo[3,4-c]pyridazin-5-yl]-1H-pyrimidine-2,4-dione]",6.22 mL/min/kg,4.3 nM
"Cn1ncc2nnc(-c3c[nH]c(=O)[nH]c3=O)cc21 [Example 3, 5-(1-methylpyrazolo[4,3-c]pyridazin-6-yl)-1H-pyrimidine-2,4-dione]",–,104 nM
"CC(Oc1nn(C)c2nnc(-c3c[nH]c(=O)[nH]c3=O)cc12)c1ccccn1 (centres unmarked) [Example 17, 5-[1-methyl-3-[1-(2-pyridyl)ethoxy]pyrazolo[3,4-c]pyridazin-5-yl]-1H-pyrimidine-2,4-dione]",6.15 mL/min/kg,3.7 nM
"CC(Oc1nn(C)c2nnc(-c3c[nH]c(=O)[nH]c3=O)cc12)c1ccccc1 (centres unmarked) [Example 10, 5-[1-methyl-3-(1-phenylethoxy)pyrazolo[3,4-c]pyridazin-5-yl]-1H-pyrimidine-2,4-dione]",6.15 mL/min/kg,–
"Cc1cccc([C@@H](Oc2nn(C)c3nnc(-c4c[nH]c(=O)[nH]c4=O)cc23)C(F)F)n1 [Example 33A, 5-[3-[(1R)-2,2-difluoro-1-(6-methyl-2-pyridyl)ethoxy]-1-methyl-pyrazolo[3,4-c]pyridazin-5-yl]-1H-pyrimidine-2,4-dione]",6.15 mL/min/kg,–
"Cn1nc(O[C@H](c2ccccn2)C(F)F)c2cc(-c3c[nH]c(=O)[nH]c3=O)nnc21 [Example 31A, 5-[3-[(1R)-2,2-difluoro-1-(2-pyridyl)ethoxy]-1-methyl-pyrazolo[3,4-c]pyridazin-5-yl]-1H-pyrimidine-2,4-dione]",6.15 mL/min/kg,–
"CC(Oc1nn(C)c2nnc(-c3c[nH]c(=O)[nH]c3=O)cc12)c1nn(C)cc1Cl (centres unmarked) [Example 23, 5-[3-[1-(4-chloro-1-methyl-pyrazol-3-yl)ethoxy]-1-methyl-pyrazolo[3,4-c]pyridazin-5-yl]-1H-pyrimidine-2,4-dione]",–,58.6 nM
"Cn1nc(O[C@@H](c2ccccn2)C(F)F)c2cc(-c3c[nH]c(=O)[nH]c3=O)nnc21 [Example 31B, 5-[3-[(1S)-2,2-difluoro-1-(2-pyridyl)ethoxy]-1-methyl-pyrazolo[3,4-c]pyridazin-5-yl]-1H-pyrimidine-2,4-dione]",6.15 mL/min/kg,–
"Cn1nc(O[C@@H](c2ccc(F)cn2)C(F)F)c2cc(-c3c[nH]c(=O)[nH]c3=O)nnc21 [Example 32B, 5-[3-[(1S)-2,2-difluoro-1-(5-fluoro-2-pyridyl)ethoxy]-1-methyl-pyrazolo[3,4-c]pyridazin-5-yl]-1H-pyrimidine-2,4-dione]",6.15 mL/min/kg,–
"Cn1nc(O[C@@H](c2ccccn2)C(F)(F)F)c2cc(-c3c[nH]c(=O)[nH]c3=O)nnc21 [Example 29B, 5-[1-methyl-3-[(1S)-2,2,2-trifluoro-1-(2-pyridyl)ethoxy]pyrazolo[3,4-c]pyridazin-5-yl]-1H-pyrimidine-2,4-dione]",6.15 mL/min/kg,–
"CC(N(C)c1nn(C)c2nnc(-c3c[nH]c(=O)[nH]c3=O)cc12)C(C)(C)C (centres unmarked) [Example 34, 5-[1-methyl-3-[methyl(1,2,2-trimethylpropyl)amino]pyrazolo[3,4-c]pyridazin-5-yl]-1H-pyrimidine-2,4-dione]",–,5.5 nM
"Cc1cccc([C@H](Oc2nn(C)c3nnc(-c4c[nH]c(=O)[nH]c4=O)cc23)C(F)F)n1 [Example 33B, 5-[3-[(1S)-2,2-difluoro-1-(6-methyl-2-pyridyl)ethoxy]-1-methyl-pyrazolo[3,4-c]pyridazin-5-yl]-1H-pyrimidine-2,4-dione]",6.15 mL/min/kg,–
"CC(C1CCCC1)N(C)c1nn(C)c2nnc(-c3c[nH]c(=O)[nH]c3=O)cc12 (centres unmarked) [Example 35, 5-[3-[1-cyclopentylethyl(methyl)amino]-1-methyl-pyrazolo[3,4-c]pyridazin-5-yl]-1H-pyrimidine-2,4-dione]",–,2.1 nM
"Cc1cccc([C@H](C)Oc2nn(C)c3nnc(-c4c[nH]c(=O)[nH]c4=O)cc23)n1 [Example 41, 5-[1-methyl-3-[(1S)-1-(6-methyl-2-pyridyl)ethoxy]pyrazolo[3,4-c]pyridazin-5-yl]-1H-pyrimidine-2,4-dione]",8.11 mL/min/kg,–
